Earlier results as cited in patent US20070053923A1, “Dna vaccine composition with enhanced immunogenicity” (priority 2003, published 2007).

Test system: immune cells
Details: via FPR and FPRL1, as reported

WKYMVM-NH2
Activation of immune cells: potent activator of immune cells
